Source: the supplement of paper PMC10307832

Experiments:
Experiment in all cases: relative viability (nuclei count vs DMSO), 5 days (fraction); higher = more cells survive
Imatinib + Tozasertib = compound: Cc1ccc(NC(=O)c2ccc(CN3CCN(C)CC3)cc2)cc1Nc1nccc(-c2cccnc2)n1 [Imatinib] + Cc1cc(Nc2cc(N3CCN(C)CC3)nc(Sc3ccc(NC(=O)C4CC4)cc3)n2)n[nH]1 [Tozasertib] (partner 0.1 µM)
Summary of the method: (§1)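 Medians of duplicate plates are given as relative viability. That measure is the nuclei count in treated wells divided by the count in vehicle wells. Counts were taken on 4× images of lung cancer cell lines in 1536-well plates, 5 days after pin-tool dosing the day after seeding with one drug alone or a fixed anchor-drug dose plus five library-drug doses (not always all listed) in √10 steps.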

Imatinib + Linsitinib = compound: Cc1ccc(NC(=O)c2ccc(CN3CCN(C)CC3)cc2)cc1Nc1nccc(-c2cccnc2)n1 [Imatinib] + C[C@]1(O)C[C@@H](c2nc(-c3ccc4ccc(-c5ccccc5)nc4c3)c3c(N)nccn32)C1 [Linsitinib] (partner 1 µM)
Summary of the method: as §1

Imatinib + Dasatinib = compound: Cc1ccc(NC(=O)c2ccc(CN3CCN(C)CC3)cc2)cc1Nc1nccc(-c2cccnc2)n1 [Imatinib] + Cc1nc(Nc2ncc(C(=O)Nc3c(C)cccc3Cl)s2)cc(N2CCN(CCO)CC2)n1 [Dasatinib] (partner 0.075 µM)
Summary of the method: as §1

Imatinib + Alpelisib = compound: Cc1ccc(NC(=O)c2ccc(CN3CCN(C)CC3)cc2)cc1Nc1nccc(-c2cccnc2)n1 [Imatinib] + Cc1nc(NC(=O)N2CCC[C@H]2C(N)=O)sc1-c1ccnc(C(C)(C)C(F)(F)F)c1 [Alpelisib] (partner 2 µM)
Summary of the method: as §1

Cell Line	relative viability (Imatinib + Tozasertib; first compound 0.02 µM)	relative viability (Imatinib + Tozasertib; first compound 0.06325 µM)	relative viability (Imatinib + Tozasertib; first compound 0.2 µM)	relative viability (Imatinib + Tozasertib; first compound 0.6325 µM)	relative viability (Imatinib + Tozasertib; first compound 2 µM)	relative viability (Imatinib + Linsitinib; first compound 0.02 µM)	relative viability (Imatinib + Linsitinib; first compound 0.2 µM)	relative viability (Imatinib + Linsitinib; first compound 0.6325 µM)	relative viability (Imatinib + Linsitinib; first compound 2 µM)	relative viability (Imatinib + Dasatinib; first compound 0.02 µM)	relative viability (Imatinib + Dasatinib; first compound 0.06325 µM)	relative viability (Imatinib + Dasatinib; first compound 0.2 µM)	relative viability (Imatinib + Dasatinib; first compound 0.6325 µM)	relative viability (Imatinib + Dasatinib; first compound 2 µM)	relative viability (Imatinib + Alpelisib; first compound 0.02 µM)	relative viability (Imatinib + Alpelisib; first compound 0.06325 µM)	relative viability (Imatinib + Alpelisib; first compound 0.2 µM)	relative viability (Imatinib + Alpelisib; first compound 0.6325 µM)	relative viability (Imatinib + Alpelisib; first compound 2 µM)	relative viability (Imatinib + Linsitinib; first compound 0.06325 µM)
NCI-H460	0.445	0.576	0.417	0.0905	0.0547	1.11	0.964	0.801	1.02	0.678	0.675	0.649	0.456	0.493	0.632	0.818	0.667	0.532	0.465	–
NCI-H520	0.474	0.509	0.366	0.424	–	1.09	1.02	1.14	0.988	0.158	0.213	0.206	0.186	0.169	0.645	1.15	1.07	0.842	0.912	1.48
NCI-H596	0.886	0.964	0.993	0.72	0.829	1.09	1.1	–	0.969	0.597	0.582	0.831	0.499	0.641	0.489	0.459	0.39	0.446	0.448	0.958
NCI-H647	0.554	0.242	0.0832	0.28	0.321	1.43	1.25	1.13	1.18	0.198	0.183	0.142	0.181	0.148	1.25	1.4	1.6	1.13	1.11	1.44
NCI-H650	0.832	0.682	0.851	0.697	0.764	1.27	0.95	1.05	0.861	0.5	0.425	0.488	0.53	0.406	1.19	1.15	1.08	1.2	0.983	0.86
NCI-H661	0.383	0.393	0.365	0.344	0.347	0.553	0.611	0.362	0.56	1.09	0.57	0.753	0.958	0.769	0.689	0.406	0.546	0.68	0.521	0.345
NCI-H727	0.59	0.59	0.518	0.543	0.509	0.301	0.277	0.299	0.347	0.433	–	0.331	0.234	0.463	0.496	0.585	0.529	0.659	–	0.249
NCI-H838	0.241	0.318	0.28	0.307	0.275	1.12	1.3	1.03	1.02	0.268	0.307	0.3	0.297	0.358	1.02	1.06	1.12	1.06	1.04	1.37
NCI-H1355	0.589	–	0.51	0.395	0.349	0.865	0.846	0.841	0.871	0.766	–	0.659	0.696	0.678	0.855	–	0.834	0.889	0.882	–
NCI-H1395	0.679	0.773	0.76	0.663	0.7	0.978	1.04	1.02	0.975	0.438	0.347	0.381	0.393	0.418	1.03	–	1.08	1	0.999	–
NCI-H1437	0.449	0.453	0.411	0.408	0.373	–	1.42	–	1.04	0.444	0.309	0.409	0.25	0.334	1.13	1.16	1.02	0.981	0.94	1.18
NCI-H1651	0.796	0.659	0.649	0.535	0.436	1.09	1.21	0.946	1.11	0.333	0.355	0.427	0.378	0.414	0.994	1.19	1.18	0.894	1.01	1.14
NCI-H1666	0.622	0.623	0.603	0.665	0.574	0.718	–	0.986	0.857	0.83	0.838	0.825	0.792	0.697	1.04	1.05	1.09	1.34	0.887	0.849
NCI-H1755	0.612	0.585	0.592	0.609	0.516	1.05	–	0.979	0.994	0.415	0.392	0.41	0.422	0.408	1.09	1.04	1.13	0.949	0.981	1.08
NCI-H1793	0.309	–	0.328	0.223	0.28	1.09	1.06	0.96	–	0.421	–	0.388	0.368	0.388	0.721	–	0.801	0.73	0.674	–
NCI-H1915	0.468	–	0.458	0.385	0.341	1.09	1.17	1.08	1.08	0.298	–	0.368	0.312	0.305	1.07	–	1.09	1.05	0.966	–
NCI-H1944	0.259	0.401	0.253	0.236	0.262	1.21	1.12	1.07	1.18	0.198	0.208	0.2	0.2	0.234	0.85	–	0.893	0.714	0.84	–

Cell Line	relative viability (Imatinib + Tozasertib; first compound 0.02 µM)	relative viability (Imatinib + Tozasertib; first compound 0.06325 µM)	relative viability (Imatinib + Tozasertib; first compound 0.2 µM)	relative viability (Imatinib + Tozasertib; first compound 0.6325 µM)	relative viability (Imatinib + Tozasertib; first compound 2 µM)	relative viability (Imatinib + Linsitinib; first compound 0.02 µM)	relative viability (Imatinib + Linsitinib; first compound 0.2 µM)	relative viability (Imatinib + Linsitinib; first compound 0.6325 µM)	relative viability (Imatinib + Linsitinib; first compound 2 µM)	relative viability (Imatinib + Dasatinib; first compound 0.02 µM)	relative viability (Imatinib + Dasatinib; first compound 0.06325 µM)	relative viability (Imatinib + Dasatinib; first compound 0.2 µM)	relative viability (Imatinib + Dasatinib; first compound 0.6325 µM)	relative viability (Imatinib + Dasatinib; first compound 2 µM)	relative viability (Imatinib + Alpelisib; first compound 0.02 µM)	relative viability (Imatinib + Alpelisib; first compound 0.06325 µM)	relative viability (Imatinib + Alpelisib; first compound 0.2 µM)	relative viability (Imatinib + Alpelisib; first compound 0.6325 µM)	relative viability (Imatinib + Alpelisib; first compound 2 µM)	relative viability (Imatinib + Linsitinib; first compound 0.06325 µM)
NCI-H1975	0.976	0.774	0.493	0.255	0.188	0.977	1.07	0.843	0.958	0.426	0.262	0.38	0.371	0.259	0.61	0.721	0.775	0.621	0.553	0.965
NCI-H1993	0.636	0.632	0.591	0.581	0.588	–	0.747	0.72	0.707	0.678	0.564	0.573	0.522	0.521	–	0.792	0.533	0.621	0.534	0.73
NCI-H2009	0.832	–	0.765	0.71	0.711	1.19	1.21	1.24	1.24	0.282	–	0.304	0.253	0.288	1.18	1.24	1.26	1.21	1.13	1.32
NCI-H2023	0.461	0.319	0.254	0.259	0.18	0.778	0.796	0.682	0.719	0.751	0.33	0.565	0.591	0.509	0.633	0.728	0.653	0.577	0.586	0.871
NCI-H2085	0.823	0.795	0.877	0.553	0.489	0.93	1.11	0.95	0.825	–	0.18	0.248	0.208	0.228	1	0.937	1.05	1.01	0.876	0.823
NCI-H2087	0.247	–	0.206	0.202	0.183	1.09	1.07	0.991	0.85	0.817	–	0.949	0.89	–	0.975	1.19	1.23	0.96	1.05	1
NCI-H2228	0.196	–	0.205	0.186	0.203	0.742	0.678	0.482	0.638	0.621	–	0.464	0.424	0.55	0.814	0.782	0.724	0.626	0.807	0.555
NCI-H2347	–	0.521	0.499	0.446	0.407	0.943	0.965	–	0.978	0.317	0.266	0.256	0.283	0.251	1.15	0.968	0.933	1.11	1.09	0.839
NCI-H2405	0.7	–	0.767	0.671	0.609	1.05	0.869	0.762	0.956	0.22	–	0.203	0.217	0.192	0.922	–	0.823	0.643	0.95	–
NCI-H3122	0.376	0.373	0.514	–	0.383	1	1.14	1.03	1.04	–	0.518	0.921	0.894	0.808	0.763	0.939	0.894	0.865	0.837	1.13
PC-3 [JPC-3]	0.911	–	0.855	0.879	0.789	–	1.05	1.04	–	1.1	–	0.955	0.931	0.778	1.08	–	1.03	1.05	0.979	–
PC-14	0.665	–	0.592	0.591	0.516	–	1.06	0.984	1.01	0.221	0.201	0.2	0.196	0.239	1.15	–	1.13	0.926	0.854	0.97
RERF-LC-KJ	0.527	0.498	0.476	0.389	0.305	0.879	1.03	0.872	0.94	0.927	0.602	0.987	0.771	0.841	0.841	0.723	0.8	–	0.8	1.08
SK-LU-1	0.336	0.322	0.316	0.303	0.28	1.58	1.15	–	0.951	0.16	0.212	0.162	0.181	0.186	1.07	1.37	1.19	0.962	–	1.22
SK-MES-1	0.994	1.02	1.13	0.906	0.821	1.07	1.23	1.06	1.19	0.372	0.309	0.372	0.318	0.337	0.887	0.891	1.03	0.954	0.988	1.19
SW 1573	0.174	0.231	0.202	0.131	0.175	0.879	0.799	0.685	0.809	0.525	0.314	0.604	0.517	0.531	0.826	0.785	1.13	0.842	0.927	0.965
UMC-11	0.192	0.205	0.216	0.211	0.208	1.14	1.05	1.08	1.06	0.527	0.34	0.619	0.507	0.457	0.982	1.18	0.957	1.03	1.03	1.57
